This note sets out measurements from patent publication US20240252527A9, “NUCLEOSIDE DRUGS FOR THE TREATMENT OR PREVENTION OF CORONAVIRUS INFECTION AND THEIR USES” (Miracure Biotechnology Limited, priority 2022, published 2024).

One experiment relates to OC43. Description: OC43 Huh7 CPE assay (cytopathic experiment). It counts as cell-based, coronavirus OC43 (HCoV-OC43). To be noted: for EC50: read-out: OC43 Huh7 CPE assay (μM) EC50; for EC90: read-out: OC43 Huh7 CPE assay (μM) EC90. In a few lines:
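Cells seeded overnight, then two-fold diluted compound added with virus; viability read by CellTiter-Glo after 3 days (229E, MRC5 cells) or 7 days (OC43, Huh7 cells). EC50/EC90 from % inhibition of virus-induced CPE; CC50 from parallel uninfected cytotoxicity runs, by nonlinear fitting.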
On the technique in general: Damage to the host cells serves as the signal in cytopathic effect assays.

Another experiment deals with 229E. Description: 229E MRC5 CPE assay (cytopathic experiment). Type of experiment: cell-based, coronavirus 229E (HCoV-229E).
Setting [1] is: Betacoronavirus 1, OC43, Huh-7, 168 h.
Setting [2] is: Betacoronavirus 1, Huh-7, 168 h, Huh7 cells, OC43 virus, 7 days, Cell Titer Glo.

Where two headings read alike, the source gives them in different places.

Broadly, the EC50 is the concentration that produces a half-maximal response. As a reminder, the EC90 is the concentration at which the effect reaches the 90% level. Take `N#C[C@@]1(c2ccc3c(N)ncnn23)O[C@H](COP(=O)(OCOC(=O)OC2CCC2)OCOC(=O)OC2CCC2)[C@@H](O)[C@H]1O` [Compound 276]: the 50% effective concentration (EC50) in the experiment with OC43 (setting [1]) fell in the range of 0.1 to 0.5 µM; in the experiment on 229E (Human coronavirus 229E, MRC5, 72 h, read-out: 229E MRC5 CPE assay (μM) EC50) it was 0.1 to 0.5 µM. Also, the concentration for an effect of 90% (EC90) in the experiment with OC43 (setting [1]) is over 0.5 µM; in the experiment with 229E (Human coronavirus 229E, MRC5, 72 h, read-out: 229E MRC5 CPE assay (μM) EC90), over 0.5 µM.
Take `CCC(CC)COC(=O)[C@H](C)N[P@](=O)(OC[C@H]1O[C@@](C#N)(c2ccc3c(N)ncnn23)[C@H](O)[C@@H]1O)Oc1ccccc1` [Remdesivir, reference compound]: the EC50 in the experiment on OC43 (setting [2]) was under 0.1 µM; in the experiment with 229E (Human coronavirus 229E, MRC5, 72 h; read-out: 229E MRC5 CPE assay (μM) EC50), under 0.1 µM. The EC90 with OC43 (setting [2]) was under 0.1 µM; in the experiment on 229E (Human coronavirus 229E, MRC5, 72 h; read-out: 229E MRC5 CPE assay (μM) EC90), 0.1 to 0.5 µM.
